The values below come from publication PMC5653977 (EMBO Molecular Medicine, 2017).

Counter-ions that a name gives are not always drawn.

One experiment deals with NRG1-ERBB4 signaling. The experiment is described as follows: Nrg1-ERBB4-PIK3R1 split TEV co-culture compound screen of the NIH Clinical Collection. The format is cell-based, human.
Conditions: not given
With `CNC(=N)NCCC[C@H](N)C(=O)O`, the Z-SCORE was -0.42.

The experiment is the same for the next values; noted with them: NIH Clinical Collection NCC-003 raw data; compounds ranked by Z-score; 'flagged' given instead of a Z-score.
Take `COc1ccc(/C=C/C(=O)Nc2ccccc2C(=O)O)cc1OC`: the Z-SCORE is recorded as -1.17. Same read-out and setting: then `Nc1ccn([C@@H]2O[C@H](CO)[C@@H](O)[C@@H]2O)c(=O)n1`, with -1.99; and `COC(=O)C1=C(C)NC(C)=C(C(=O)O[C@@H]2CCCN(Cc3ccccc3)C2)[C@@H]1c1cccc([N+](=O)[O-])c1.Cl` (racemic) [BENIDIPINE HCl], with -1.41; and `CC(NC(C)(C)C)C(=O)c1cccc(Cl)c1` (stereo not drawn) [BUPROPION HYDROCHLORIDE], with -2.1. On the same count and under the same terms, under `CC(=O)[C@]1(O)Cc2c(O)c3c(c(O)c2[C@@H](O[C@H]2C[C@H](N)[C@H](O)[C@H](C)O2)C1)C(=O)c1ccccc1C3=O` [IDARUBICIN HCl] stands “flagged”; under `CC(=O)[C@H]1CC[C@H]2[C@@H]3CCC4=CC(=O)CC[C@]4(C)[C@H]3CC[C@]12C` [PROGESTERONE], -1.2.

Still in this experiment, the particulars now being: compound screen of the NIH Clinical Collection, sheet raw data NCC-003; compounds ranked by Z-score.
For the compound `COc1ccc(-c2oc3c(CC=C(C)C)c(O[C@@H]4O[C@H](CO)[C@@H](O)[C@H](O)[C@H]4O)cc(O)c3c(=O)c2O[C@@H]2O[C@@H](C)[C@H](O)[C@@H](O)[C@H]2O)cc1` [ICARIIN], the Z-SCORE is -0.37. On to `CC(=O)Nc1ccc(CC(=O)O)cc1` [ACTARIT], for which the Z-SCORE is -0.12. For the compound `Cc1c(O)cccc1C(=O)N[C@@H](CSc1ccccc1)[C@H](O)CN1C[C@H]2CCCC[C@H]2C[C@H]1C(=O)NC(C)(C)C` [NELFINAVIR MESYLATE], the Z-SCORE came to 0.24. In turn, `N[C@@H]1CON=C1O` [D-CYCLOSERINE, reference compound] showed a Z-SCORE of 2.86. Still for that read-out and setting: under `CCN1CCCC1CNC(=O)c1cc(S(=O)(=O)CC)c(N)cc1OC` (stereo not drawn) [Amisulpride] stands 0.41; under `NC[C@H]1CC[C@H](C(=O)Oc2ccc(CCC(=O)O)cc2)CC1` [CETRAXATE HCl], 0.04; under `Cc1cn([C@H]2C=C[C@@H](CO)O2)c(=O)[nH]c1=O` [STAVUDINE, reference compound], 0.08. Still for that read-out and setting: then `CN1CCN(c2nc3cc(C(F)(F)F)ccc3n3cccc23)CC1.O=C(O)/C=C\C(=O)O.O=C(O)/C=C\C(=O)O` [CGS 12066B], with 0.3. Regarding `C[C@H]1CCC[C@H](O)CCCCCc2cc(O)cc(O)c2C(=O)O1` [ZERANOL], the Z-SCORE is -0.91. `CCOC(=O)N1CCC(=C2c3ccc(Cl)cc3CCc3cccnc32)CC1` [LORATADINE] displayed a Z-SCORE of 0.21. The compound `COc1ccc(C(=O)NCc2ccc(OCCN(C)C)cc2)cc1OC.Cl` [ITOPRIDE HCl] yielded a Z-SCORE of 1.68.

Compound `CN1CCN2c3ncccc3Cc3ccccc3C2C1` (stereo not drawn) [mirtazapine, reference compound] yielded a Z-SCORE of -0.36. Regarding `c1ccc(Cn2ccnc2)cc1` [1-BENZYLIMIDAZOLE], the Z-SCORE is recorded as -0.1.

`Cc1nc2ccc(CN(C)c3ccc(C(=O)N[C@@H](CCC(=O)O)C(=O)O)s3)cc2c(=O)[nH]1` [RALTITREXED] yielded a Z-SCORE of -0.52. The compound `C=C1/C(=C\C=C2/CCC[C@]3(C)[C@@H]([C@H](C)CCCC(C)(C)O)CC[C@@H]23)C[C@@H](O)C[C@@H]1O` [CALCITRIOL] came in with a Z-SCORE of -0.48. Turning to `CC(C)(C)NCC(O)c1ccc(O)c(CO)c1.CC(C)(C)NCC(O)c1ccc(O)c(CO)c1.O=S(=O)(O)O` (stereo not drawn) [SALBUTAMOL SULFATE], the Z-SCORE is recorded as -0.61.

`Cc1ncc2n1-c1ccc(Cl)cc1C(c1ccccc1F)=NC2` [MIDAZOLAM HCl] came in with a Z-SCORE of 0.91. As for `O=C(O)CCc1nc(-c2ccccc2)c(-c2ccccc2)o1` [OXAPROZIN], the Z-SCORE was found to be 0.6. In turn, `Fc1ccc([C@@H]2CCNC[C@H]2COc2ccc3c(c2)OCO3)cc1` [Paroxetine, reference compound] had a Z-SCORE of 2.09.

As to `CC(C(O)c1ccc(O)cc1)N1CCC(Cc2ccccc2)CC1` (stereo not drawn) [Ifenprodil], the Z-SCORE is given as 1.07. For `COCCCC/C(=N\OCCN)c1ccc(C(F)(F)F)cc1` [Fluvoxamine], the Z-SCORE was -0.2. As to `O=C1N[C@H](C(=O)O)CS1`, the Z-SCORE stood at 0.84. The compound `Nc1ccc(O)c(C(=O)O)c1` [5-Amino-2-hydroxy-benzoic acid] registered a Z-SCORE of 1.62. Same read-out and setting: then `NC(=O)OCCCc1ccccc1` [PHENPROBAMATE], with -0.62. The compound `CC[C@@H]1C(=O)OC[C@@H]1Cc1cncn1C` [PILOCARPINE HYDROCHLORIDE] yielded a Z-SCORE of -0.77.

With `CCN(CC)CC(=O)Nc1c(C)cccc1C` [LIDOCAINE], the Z-SCORE is given as 1.02. `OC[C@H]1O[C@@H](Oc2cc(O)cc(/C=C/c3ccc(O)cc3)c2)[C@H](O)[C@@H](O)[C@@H]1O` [PICEID]: the Z-SCORE amounted to 0.85. Still for that read-out and setting: then `C[C@]12CC[C@H]3[C@@H](CCC4=CC(=O)CC[C@@H]43)[C@@H]1CC[C@@H]2O` [nandrolone], with -0.57; and `CCN(CC)CC1CCCCN1CC(=O)N1c2ccccc2C(=O)Nc2cccnc21` (stereo not drawn), with 1; and `O=C(c1ccc(F)cc1)C1CCN(CCn2c(=S)[nH]c3ccccc3c2=O)CC1` [Altanserin], with 0.71. `CCS(=O)(=O)CCn1c([N+](=O)[O-])cnc1C` [TINIDAZOLE] gave a Z-SCORE of -0.51.

Staying with this experiment, now noted: compound screen of the NIH Clinical Collection, sheet raw data NCC-003; compounds ranked by Z-score; listed as PAROXETINE
`Fc1ccc([C@@H]2CCNC[C@H]2COc2ccc3c(c2)OCO3)cc1` [Paroxetine, reference compound] registered a Z-SCORE of 1.3.

The experiment is the same for the next values; noted with them: compounds at 10 μM, 24 h; PC12 split TEV assay cells co-cultured with Nrg1-expressing PC12 cells; analysed with cellHTS2.
With `COC1=CC(=O)C[C@@H](C)[C@]12Oc1c(Cl)c(OC)cc(OC)c1C2=O` [Griseofulvin, reference compound], the Z-SCORE was 0.64. `COC(=O)Nc1nc2ccc(C(=O)c3ccccc3)cc2[nH]1` [Mebendazole, reference compound]: the Z-SCORE is -4.63.

In turn, `CCN(CC)CC#CCOC(=O)C(O)(c1ccccc1)C1CCCCC1` (stereo not drawn) [OXYBUTYNIN CHLORIDE, reference compound] registered a Z-SCORE of -0.59. The same measure, in the same setting: under `C[C@@H]1C[C@H]2[C@@H]3CCC4=CC(=O)C=C[C@]4(C)[C@@]3(F)[C@@H](O)C[C@]2(C)[C@@]1(O)C(=O)CO` [Dexamethasone, reference compound] stands 0.88; under `N[C@@H]1CON=C1O` [D-CYCLOSERINE, reference compound], -0.66. Still for that read-out and setting: then `CC(C)NCC(O)c1cc(O)cc(O)c1` (stereo not drawn) [Metaproterenol, reference compound], with -0.11. In turn, `CN[C@@H]1[C@H](O)[C@H](NC)[C@H]2O[C@@]3(O)C(=O)C[C@@H](C)O[C@H]3O[C@@H]2[C@H]1O.Cl.Cl.O.O.O.O.O` [SPECTINOMYCIN DIHYDROCHLORIDE PENTAHYDRATE, reference compound] came in with a Z-SCORE of 0.04. The compound `COc1ccc([C@@H]2Sc3ccccc3N(CCN(C)C)C(=O)[C@@H]2OC(C)=O)cc1.Cl` (relative stereo) [(+)-CIS-DILTIAZEM HYDROCHLORIDE, reference compound] returned a Z-SCORE of -0.13. In turn, `NS(=O)(=O)c1cc(C(=O)O)c(NCc2ccco2)cc1Cl` [FUROSEMIDE, reference compound] showed a Z-SCORE of 0.8. `Cc1cn([C@H]2C=C[C@@H](CO)O2)c(=O)[nH]c1=O` [STAVUDINE, reference compound] had a Z-SCORE of 0.2.

Consider `CCc1cccc2c3c([nH]c12)C(CC)(CC(=O)O)OCC3` (stereo not drawn) [Etodolac, reference compound], for which the Z-SCORE is -0.28. The compound `CCN(CC)CCOC(=O)C1(C2CCCCC2)CCCCC1` [Dicyclomine hydrochloride, reference compound] yielded a Z-SCORE of -2.03. Still for that read-out and setting: then `NCCc1ccc(O)c(O)c1` [Intropin, reference compound], with 0.13; and `CN1CCN2c3ncccc3Cc3ccccc3C2C1` (stereo not drawn) [mirtazapine, reference compound], with 0.65; and `N[C@H](Cc1cc(I)c(Oc2ccc(O)c(I)c2)c(I)c1)C(=O)O` [NSC46046, reference compound], with -1.87.

The compound `CN(C)CCC=C1c2ccccc2CCc2ccccc21.Cl` [Annoyltin, reference compound] had a Z-SCORE of 0.33.

The compound `c1ccc(CC2=NCCN2)cc1` [Priscoline, reference compound] returned a Z-SCORE of 1.86.

Turning to `CC(=O)O.NCc1ccc(S(N)(=O)=O)cc1` [4-(AMINOMETHYL)BENZENESULFONAMIDE ACETATE, reference compound], the Z-SCORE was found to be 0.49. As to `CC(C)[N+]1(C)[C@@H]2CC[C@H]1C[C@@H](OC(=O)C(CO)c1ccccc1)C2.O.[Br-]` (stereo partly drawn) [IPRATROPIUM BROMIDE MONOHYDRATE, reference compound], the Z-SCORE came to 0.31. `CC1(C)S[C@@H]2[C@H](NC(=O)COc3ccccc3)C(=O)N2[C@H]1C(=O)O` [Penicillin V, reference compound] showed a Z-SCORE of 0.66. Same read-out and setting: under `Fc1ccc([C@@H]2CCNC[C@H]2COc2ccc3c(c2)OCO3)cc1` [Paroxetine, reference compound] stands -0.28; under `CCOC(=O)C1=C(C)NC(C)=C(C(=O)OC)C1c1cccc(Cl)c1Cl` (stereo not drawn) [Felodipine, reference compound], -1.97. With `O=C(O)COCCN1CCN(C(c2ccccc2)c2ccc(Cl)cc2)CC1` (stereo not drawn) [Cetirizine, reference compound], the Z-SCORE was 0.89. The same measure, in the same setting: under `Clc1ccc2c(c1)C(N1CCNCC1)=Nc1ccccc1O2` [AMOXAPINE, reference compound] stands 0.4. Compound `Cc1cn([C@H]2C[C@H](N=[N+]=[N-])[C@@H](CO)O2)c(=O)[nH]c1=O` [zidovudine, reference compound] gave a Z-SCORE of 0.17.

`Nc1ncnc2c1ncn2[C@@H]1O[C@H](CO)[C@@H](O)[C@@H]1O` [Adenine 9-beta, reference compound] displayed a Z-SCORE of 1.63.

`O=C1CN(/N=C/c2ccc([N+](=O)[O-])o2)C(=O)N1` [NITROFURANTOIN, reference compound] gave a Z-SCORE of -0.02. With `Cc1ccccc1C(OCCN(C)C)c1ccccc1` (stereo not drawn) [Norflex, reference compound], the Z-SCORE stood at 0.74. Regarding `O=C1C(CC[S+]([O-])c2ccccc2)C(=O)N(c2ccccc2)N1c1ccccc1` (stereo not drawn) [Sulfinpyrazone, reference compound], the Z-SCORE amounted to 0.99. For the compound `O=C1CC[C@@]2(O)[C@H]3Cc4ccc(O)c5c4[C@@]2(CCN3CC2CC2)[C@H]1O5` [NALTREXONE HYDROCHLORIDE, reference compound], the Z-SCORE was found to be 0.59.
